Measured values taken from PubChem BioAssay AID248 (DTP/NCI, 2004).
Values joined by “and” are separate entries in the source; they are usually repeats but may differ in a detail not shown here. Equal entries are not always repeated. Inconclusive results and toxic doses are left out. No stated cut-off is given here; in the data, active means T/C of 150% or more; inactive means T/C below 125%.

Tested on: L1210 leukemia ip in BDF1 mice, survival T/C
Assay: NCI In Vivo Anticancer Drug Screen. Data for tumor model L1210 Leukemia (intraperitoneal) in B6D2F1 (BDF1) mice
Conditions: endpoint: mean survival time, higher = longer survival
Method in brief: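 Transplantable tumor model; survival measured in treated vs vehicle control mice. Value = treated/control.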

[1] = dose: 100.0 mg/kg/injection, schedule: Q01DX001 (ip), vehicle: carboxymethylcellulose (CMC)
[2] = dose: 200.0 mg/kg/injection, schedule: Q01DX001 (ip), vehicle: carboxymethylcellulose (CMC)
[3] = dose: 400.0 mg/kg/injection, schedule: Q01DX001 (ip), vehicle: carboxymethylcellulose (CMC)
[4] = dose: 100.0 mg/kg/injection, schedule: Q01DX001 (ip), vehicle: Klucel (hydroxypropylcellulose) (HPC)
[5] = dose: 100.0 mg/kg/injection, schedule: Q04DX003 (ip), vehicle: Klucel (hydroxypropylcellulose) (HPC)
[6] = dose: 200.0 mg/kg/injection, schedule: Q01DX001 (ip), vehicle: Klucel (hydroxypropylcellulose) (HPC)
[7] = dose: 200.0 mg/kg/injection, schedule: Q04DX003 (ip), vehicle: Klucel (hydroxypropylcellulose) (HPC)
[8] = dose: 400.0 mg/kg/injection, schedule: Q01DX001 (ip), vehicle: Klucel (hydroxypropylcellulose) (HPC)
[9] = dose: 400.0 mg/kg/injection, schedule: Q04DX003 (ip), vehicle: Klucel (hydroxypropylcellulose) (HPC)
[10] = dose: 100.0 mg/kg/injection, schedule: Q04DX003 (ip), vehicle: saline with Tween-80
[11] = dose: 200.0 mg/kg/injection, schedule: Q04DX003 (ip), vehicle: saline with Tween-80
[12] = dose: 400.0 mg/kg/injection, schedule: Q04DX003 (ip), vehicle: saline with Tween-80
[13] = dose: 100.0 mg/kg/injection, schedule: Q01DX009 (ip), vehicle: saline with Tween-80
[14] = dose: 200.0 mg/kg/injection, schedule: Q01DX009 (ip), vehicle: saline with Tween-80
[15] = dose: 100.0 mg/kg/injection, schedule: Q01DX001 (ip), vehicle: saline
[16] = dose: 200.0 mg/kg/injection, schedule: Q01DX001 (ip), vehicle: saline
[17] = dose: 400.0 mg/kg/injection, schedule: Q01DX001 (ip), vehicle: saline
[18] = dose: 400.0 mg/kg/injection, schedule: Q01DX009 (ip), vehicle: saline with Tween-80
[19] = dose: 50.0 mg/kg/injection, schedule: Q01DX001 (ip), vehicle: saline

Measured: T/C

O=C(O)CCC(NC(=O)c1ccccc1C(=O)O)C(=O)O (stereo unspecified)
inactive: [1] 94 % of control | [2] 94 % of control | [3] 90 % of control

CCOC(=O)c1[nH]c(C)c(C(=O)OC(C)(C)C)c1C
inactive: [4] 95 % of control | [5] 95 % of control | [6] 93 % of control | [7] 106 % of control | [8] 92 % of control | [9] 103 % of control

O=C(N/N=C/c1ccccc1O)C(O)(c1ccccc1)c1ccccc1
inactive: [1] 101 % of control | [2] 97 % of control | [3] 97 % of control

NNC(=O)c1cc2c3ccccc3ncc2c2ccccc12
inactive: [10] 86 % of control | [11] 94 % of control | [12] 108 % of control

Cc1ccc(Cl)cc1NC(=O)N1CCCCC1C (stereo unspecified)
inactive: dose: 50.0 mg/kg/injection, schedule: Q04DX002 (ip), vehicle: saline with Tween-80 106 % of control and 92 % of control | dose: 100.0 mg/kg/injection, schedule: Q01DX001 (ip), vehicle: saline with Tween-80 109 % of control | [13] 95 % of control and 96 % of control | [10] 97 % of control | dose: 200.0 mg/kg/injection, schedule: Q01DX001 (ip), vehicle: saline with Tween-80 103 % of control | [14] 94 % of control and 100 % of control | [11] 103 % of control | dose: 400.0 mg/kg/injection, schedule: Q01DX001 (ip), vehicle: saline with Tween-80 104 % of control | [12] 95 % of control

O=C(NCCO)c1ccc(Br)cc1
inactive: dose: 50.0 mg/kg/injection, schedule: Q01DX009 (ip), vehicle: saline with Tween-80 97 % of control | [13] 97 % of control | [14] 90 % of control

CCCCCCOC(=O)C1(C)OC1c1ccccc1 (stereo unspecified)
inactive: dose: 100.0 mg/kg/injection, schedule: Q04DX002 (ip), vehicle: saline 112 % of control | dose: 200.0 mg/kg/injection, schedule: Q04DX002 (ip), vehicle: saline 104 % of control | dose: 400.0 mg/kg/injection, schedule: Q04DX002 (ip), vehicle: saline 93 % of control

O=C(OCC1OC(OC(=O)c2ccccc2)C(OC(=O)c2ccccc2)C(OC(=O)c2ccccc2)C1OC(=O)c1ccccc1)c1ccccc1 (stereo unspecified)
inactive: [15] 98 % of control | [16] 98 % of control | [17] 106 % of control

CNC(=O)C1C2C=CC(C2)C1C(=O)NC (stereo unspecified)
inactive: [10] 93 % of control and 100 % of control and 87 % of control | [11] 96 % of control and 100 % of control and 106 % of control | [12] 93 % of control and 100 % of control (2×)

O=C(Nc1ccccc1Cl)Nc1ccccc1Br
inactive: dose: 100.0 mg/kg/injection, schedule: Q04DX002 (ip), vehicle: saline + alcohol 103 % of control | dose: 200.0 mg/kg/injection, schedule: Q04DX002 (ip), vehicle: saline + alcohol 96 % of control | dose: 400.0 mg/kg/injection, schedule: Q04DX002 (ip), vehicle: saline + alcohol 92 % of control

Cc1ccc(C2(C#N)CC2)cc1
inactive: [13] 98 % of control | [10] 108 % of control | [14] 98 % of control | [11] 104 % of control | [18] 112 % of control | [12] 104 % of control

COC1OC2COC(c3ccccc3)OC2C(N=Cc2ccccc2)C1O (stereo unspecified)
inactive: [13] 97 % of control | [14] 101 % of control | [18] 98 % of control

CC[N+](C)(C)CCCNC(=O)C12CC3CC(CC(C3)C1)C2
inactive: dose: 25.0 mg/kg/injection, schedule: Q04DX002 (ip), vehicle: saline 99 % of control | dose: 50.0 mg/kg/injection, schedule: Q04DX002 (ip), vehicle: saline 96 % of control

CCC1(Cc2ccccc2)C(=O)NC(=S)N(C)C1=O (stereo unspecified)
inactive: dose: 75.0 mg/kg/injection, schedule: Q01DX001 (ip), vehicle: saline 106 % of control

[O-][n+]1ccnc(C(Cl)(Cl)Cl)c1Cl
inactive: dose: 0.78 mg/kg/injection, schedule: Q01DX009 (ip), vehicle: other 90 % of control | dose: 1.56 mg/kg/injection, schedule: Q01DX009 (ip), vehicle: other 107 % of control | dose: 3.12 mg/kg/injection, schedule: Q01DX009 (ip), vehicle: other 86 % of control

CCC(C)NC(=O)Nc1cccc(Cl)c1C (stereo unspecified)
inactive: [13] 86 % of control | [10] 90 % of control | [11] 95 % of control | [18] 89 % of control | [12] 103 % of control

CC1(C)CC(OP(OC2CC(C)(C)N(O)C(C)(C)C2)OC2CC(C)(C)N(O)C(C)(C)C2)CC(C)(C)N1O
inactive: dose: 100.0 mg/kg/injection, schedule: Q01DX001 (ip), vehicle: water 100 % of control | dose: 200.0 mg/kg/injection, schedule: Q01DX001 (ip), vehicle: water 94 % of control | dose: 400.0 mg/kg/injection, schedule: Q01DX001 (ip), vehicle: water 94 % of control

CC(C)C(=O)[O][Sn]([CH2]c1ccccc1)([CH2]c1ccccc1)[CH2]c1ccccc1
inactive: [10] 88 % of control

Nc1ccc(C(=O)O)c(O)c1.Nc1ccc(C(=O)O)c(O)c1.[Na+].[O]=[V]
inactive: dose: 2.0 mg/kg/injection, schedule: Q01DX015 (ip), vehicle: carboxymethylcellulose (CMC) 98 % of control | dose: 4.0 mg/kg/injection, schedule: Q01DX015 (ip), vehicle: carboxymethylcellulose (CMC) 93 % of control | dose: 8.0 mg/kg/injection, schedule: Q01DX015 (ip), vehicle: carboxymethylcellulose (CMC) 100 % of control | dose: 16.0 mg/kg/injection, schedule: Q01DX015 (ip), vehicle: carboxymethylcellulose (CMC) 110 % of control and 113 % of control | dose: 32.0 mg/kg/injection, schedule: Q01DX015 (ip), vehicle: carboxymethylcellulose (CMC) 101 % of control

O=C(Cl)C1CCC1C(=O)Cl (stereo unspecified)
inactive: dose: 75.0 mg/kg/injection, schedule: Q01DX001 (ip), vehicle: carboxymethylcellulose (CMC) 102 % of control | dose: 150.0 mg/kg/injection, schedule: Q01DX001 (ip), vehicle: carboxymethylcellulose (CMC) 91 % of control

O=c1[nH]cc(/C=N\Nc2ccccc2)c(=O)[nH]1
inactive: [19] 97 % of control | [15] 101 % of control | [16] 101 % of control | [17] 101 % of control

O=C(NC(CSC(c1ccc(Cl)cc1)c1ccc(Cl)cc1)C(=O)O)OCc1ccccc1 (stereo unspecified)
inactive: dose: 25.0 mg/kg/injection, schedule: Q04DX003 (ip), vehicle: Klucel (hydroxypropylcellulose) (HPC) 102 % of control | dose: 50.0 mg/kg/injection, schedule: Q04DX003 (ip), vehicle: Klucel (hydroxypropylcellulose) (HPC) 91 % of control | [5] 97 % of control

CC(C)=NN
inactive: [15] 105 % of control | [16] 98 % of control | [17] 100 % of control

O=c1[nH]c2cnn(-c3ccccc3)c2c(=O)n1OS(=O)(=O)c1ccccc1
inactive: dose: 5.0 mg/kg/injection, schedule: Q01DX001 (ip), vehicle: saline 103 % of control | dose: 10.0 mg/kg/injection, schedule: Q01DX001 (ip), vehicle: saline 100 % of control | dose: 20.0 mg/kg/injection, schedule: Q01DX001 (ip), vehicle: saline 100 % of control | dose: 40.0 mg/kg/injection, schedule: Q01DX001 (ip), vehicle: saline 97 % of control | [19] 109 % of control | dose: 80.0 mg/kg/injection, schedule: Q01DX001 (ip), vehicle: saline 97 % of control | [15] 100 % of control | [16] 97 % of control | [17] 103 % of control

Cn1cc2c(=O)n(OS(=O)(=O)c3ccccc3)c(=O)[nH]c2n1
inactive: [19] 106 % of control | [15] 93 % of control | [16] 106 % of control | [17] 100 % of control

CCCCC(CC)CNCC(CC)CCCC (stereo unspecified)
inactive: dose: 25.0 mg/kg/injection, schedule: Q04DX003 (ip), vehicle: carboxymethylcellulose (CMC) 100 % of control | dose: 50.0 mg/kg/injection, schedule: Q04DX003 (ip), vehicle: carboxymethylcellulose (CMC) 102 % of control | dose: 100.0 mg/kg/injection, schedule: Q04DX003 (ip), vehicle: carboxymethylcellulose (CMC) 97 % of control | dose: 100.0 mg/kg/injection, schedule: Q04DX013 (ip), vehicle: carboxymethylcellulose (CMC) 96 % of control

Cc1ccccc1N=Cc1cccc([N+](=O)[O-])c1
inactive: [4] 107 % of control | [5] 98 % of control | [6] 107 % of control | [7] 101 % of control | [8] 112 % of control | [9] 98 % of control

O=[N+]([O-])c1ccc(OCc2ccccc2)cc1
inactive: [10] 96 % of control | [11] 92 % of control | [12] 94 % of control
